Experimental data reported in PubChem BioAssay AID256 (DTP/NCI, 2004).
Where “and” joins values, the source holds several entries; their conditions need not be identical. Equal entries are not always repeated. Toxic doses and inconclusive results are not listed.

Tested on: CD2F1 mice, L1210 leukemia ip, survival T/C
Assay: NCI In Vivo Anticancer Drug Screen. Data for tumor model L1210 Leukemia (intraperitoneal) in CD2F1 (CDF1) mice
Details: endpoint: mean survival time, higher = longer survival
Procedure, shortened: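 Antitumor effect is scored in animals hosting a serially transplanted tumor. Values compare compound-dosed animals against vehicle-only controls as a simple quotient.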

[1] = dose: 100.0 mg/kg/injection, schedule: Q01DX001 (ip), vehicle: saline with Tween-80
[2] = dose: 200.0 mg/kg/injection, schedule: Q01DX001 (ip), vehicle: saline with Tween-80
[3] = dose: 50.0 mg/kg/injection, schedule: Q01DX009 (ip), vehicle: saline with Tween-80
[4] = dose: 100.0 mg/kg/injection, schedule: Q01DX009 (ip), vehicle: saline with Tween-80
[5] = dose: 100.0 mg/kg/injection, schedule: Q04DX003 (ip), vehicle: saline with Tween-80
[6] = dose: 200.0 mg/kg/injection, schedule: Q01DX009 (ip), vehicle: saline with Tween-80
[7] = dose: 200.0 mg/kg/injection, schedule: Q04DX003 (ip), vehicle: saline with Tween-80
[8] = dose: 400.0 mg/kg/injection, schedule: Q01DX001 (ip), vehicle: saline with Tween-80
[9] = dose: 400.0 mg/kg/injection, schedule: Q04DX003 (ip), vehicle: saline with Tween-80

`CCC([NH-])(CC)C[NH-].[Cl][Pt+2][Cl]` was tested, and the T/C (dose: 0.39 mg/kg/injection, schedule: Q04DX003 (ip), vehicle: saline with Tween-80) was 101 % of control, the T/C (dose: 0.79 mg/kg/injection, schedule: Q04DX003 (ip), vehicle: saline with Tween-80) was 102 % of control and the T/C (dose: 1.56 mg/kg/injection, schedule: Q04DX003 (ip), vehicle: saline with Tween-80) was 107 % of control. The T/C (dose: 3.12 mg/kg/injection, schedule: Q04DX003 (ip), vehicle: saline with Tween-80) was 108 % of control, the T/C (dose: 3.13 mg/kg/injection, schedule: Q04DX003 (ip), vehicle: saline) was 232 % of control and the T/C (dose: 6.25 mg/kg/injection, schedule: Q04DX003 (ip), vehicle: saline) was 208 % of control. The T/C (dose: 25.0 mg/kg/injection, schedule: Q04DX003 (ip), vehicle: saline with Tween-80) was 111 % of control.
In the case of `C[N+]1(C)CCc2ccccc2C1Cc1ccc(Oc2ccc(CC3c4ccccc4CC[N+]3(C)C)cc2)cc1` (centres undefined), the T/C (dose: 0.2 mg/kg/injection, schedule: Q01DX009 (ip), vehicle: saline) is reported as 93 % of control and the T/C (dose: 0.39 mg/kg/injection, schedule: Q01DX009 (ip), vehicle: saline) is reported as 96 % of control.
For `CCOC(=S)SCC(=O)O`, the T/C [1] was 92 % of control and the T/C [2] was 96 % of control.
In the case of `CC(S)c1ccccc1` (centres undefined), the T/C [3] is reported as 90 % of control, the T/C [4] is reported as 102 % of control and the T/C [5] is reported as 104 % of control. For the same compound, the T/C [6] was 104 % of control and the T/C [7] was 98 % of control.
`O=C(CNC(=O)Nc1cccc([N+](=O)[O-])c1)N/N=C/c1ccc(F)cc1` was tested, and the T/C [3] was 89 % of control, the T/C [4] was 93 % of control and the T/C [6] was 101 % of control.
With `CCCCCCCCC(CCCCCCCC)CCCC1CCCC1` the T/C [1] was 95 % of control, the T/C [2] was 110 % of control and the T/C [8] was 103 % of control.
In the case of `c1ccc2c(CC3=NCCN3)cccc2c1`, the T/C (dose: 12.5 mg/kg/injection, schedule: Q04DX003 (ip), vehicle: saline with Tween-80) is reported as 98 % of control, the T/C (dose: 50.0 mg/kg/injection, schedule: Q04DX003 (ip), vehicle: saline with Tween-80) is reported as 88 % of control and the T/C (dose: 50.0 mg/kg/injection, schedule: Q04DX003 (ip), vehicle: saline) is reported as 102 % of control.
With `CN1CCC(Br)(C(=O)c2ccccc2)CC1` the T/C (dose: 37.5 mg/kg/injection, schedule: Q01DX009 (ip), vehicle: saline with Tween-80) was 100 % of control, the T/C (dose: 75.0 mg/kg/injection, schedule: Q01DX009 (ip), vehicle: saline with Tween-80) was 95 % of control and the T/C (dose: 75.0 mg/kg/injection, schedule: Q04DX003 (ip), vehicle: saline with Tween-80) was 97 % of control. For the same compound, the T/C (dose: 150.0 mg/kg/injection, schedule: Q01DX009 (ip), vehicle: saline with Tween-80) was 92 % of control and the T/C (dose: 150.0 mg/kg/injection, schedule: Q04DX003 (ip), vehicle: saline with Tween-80) was 98 % of control.
For `CCOC(=O)c1c(-c2ccccc2)[nH]c(C)cc1=O`, the T/C (dose: 100.0 mg/kg/injection, schedule: Q04DX002 (ip), vehicle: saline with Tween-80) was 100 % of control, the T/C (dose: 200.0 mg/kg/injection, schedule: Q04DX002 (ip), vehicle: saline with Tween-80) was 100 % of control and the T/C (dose: 400.0 mg/kg/injection, schedule: Q04DX002 (ip), vehicle: saline with Tween-80) was 100 % of control.
In the case of `CCC(=O)c1cc2c(c3c1CCCC3)CCCC2`, the T/C (dose: 25.0 mg/kg/injection, schedule: Q01DX009 (ip), vehicle: other) is reported as 104 % of control, the T/C (dose: 50.0 mg/kg/injection, schedule: Q01DX009 (ip), vehicle: other) is reported as 98 % of control and the T/C (dose: 100.0 mg/kg/injection, schedule: Q01DX009 (ip), vehicle: other) is reported as 104 % of control.
`Oc1ccc(O)cc1` was tested, and the T/C (dose: 33.0 mg/kg/injection, schedule: Q01DX009 (ip), vehicle: saline) was 102 % of control and 103 % of control, the T/C (dose: 75.0 mg/kg/injection, schedule: Q01DX001 (ip), vehicle: saline) was 107 % of control and the T/C (dose: 75.0 mg/kg/injection, schedule: Q01DX009 (ip), vehicle: saline) was 120 % of control. The T/C (dose: 113.0 mg/kg/injection, schedule: Q01DX009 (ip), vehicle: saline) was 96 % of control.
In the case of `CC(Br)C(=O)NC(C)C(=O)O` (centres undefined), the T/C [5] is reported as 92 % of control, the T/C [7] is reported as 108 % of control and the T/C [9] is reported as 121 % of control.
In the case of `CC(CCC(=O)O)C1CCC2C3CCC4CC(O)CCC4(C)C3CC(O)C12C` (centres undefined), the T/C [1] is reported as 104 % of control and 94 % of control, the T/C [2] is reported as 101 % of control and the T/C [8] is reported as 92 % of control.
With `CCOC(CC)C(O)(c1ccc(N(C)C)cc1)c1ccc(N(C)C)cc1` (centres undefined) the T/C [5] was 97 % of control, the T/C [7] was 102 % of control and the T/C [9] was 94 % of control.
